Test results published in doi:10.1101/706028v1 (biorxiv, 2019).

Tests used:
[1] = molecular target: ΔCRD Nluc-SMO (Mus musculus, UniProt P56726, D477G/E522K); test: NanoBRET saturation binding, live cells; format: cell-based
[2] = molecular target: Nluc-SMO (Mus musculus, UniProt P56726, D477G/E522K); test: NanoBRET saturation binding, live cells; format: cell-based
Sequence of Nluc-SMO (P56726 33-793 D477G/E522K): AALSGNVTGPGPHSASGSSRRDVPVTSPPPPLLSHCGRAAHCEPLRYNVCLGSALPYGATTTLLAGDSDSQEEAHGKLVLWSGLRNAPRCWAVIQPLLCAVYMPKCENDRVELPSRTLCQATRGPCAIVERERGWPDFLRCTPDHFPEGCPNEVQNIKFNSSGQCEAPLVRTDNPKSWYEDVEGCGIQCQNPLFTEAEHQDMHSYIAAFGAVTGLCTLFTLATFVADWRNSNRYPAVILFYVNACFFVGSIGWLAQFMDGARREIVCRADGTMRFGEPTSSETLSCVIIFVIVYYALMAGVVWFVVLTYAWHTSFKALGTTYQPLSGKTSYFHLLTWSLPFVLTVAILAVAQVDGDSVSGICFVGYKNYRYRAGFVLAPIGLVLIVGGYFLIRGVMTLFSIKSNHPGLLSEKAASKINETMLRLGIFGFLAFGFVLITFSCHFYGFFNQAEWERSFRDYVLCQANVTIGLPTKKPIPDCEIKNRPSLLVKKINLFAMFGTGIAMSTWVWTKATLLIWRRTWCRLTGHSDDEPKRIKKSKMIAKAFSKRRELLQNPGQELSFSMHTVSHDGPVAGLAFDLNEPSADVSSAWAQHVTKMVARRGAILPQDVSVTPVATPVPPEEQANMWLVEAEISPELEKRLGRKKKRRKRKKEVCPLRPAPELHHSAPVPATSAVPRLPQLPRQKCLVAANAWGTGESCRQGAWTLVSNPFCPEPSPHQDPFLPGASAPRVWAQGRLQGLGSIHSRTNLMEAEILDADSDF

Sequence of ΔCRD Nluc-SMO (P56726 185-793 D477G/E522K): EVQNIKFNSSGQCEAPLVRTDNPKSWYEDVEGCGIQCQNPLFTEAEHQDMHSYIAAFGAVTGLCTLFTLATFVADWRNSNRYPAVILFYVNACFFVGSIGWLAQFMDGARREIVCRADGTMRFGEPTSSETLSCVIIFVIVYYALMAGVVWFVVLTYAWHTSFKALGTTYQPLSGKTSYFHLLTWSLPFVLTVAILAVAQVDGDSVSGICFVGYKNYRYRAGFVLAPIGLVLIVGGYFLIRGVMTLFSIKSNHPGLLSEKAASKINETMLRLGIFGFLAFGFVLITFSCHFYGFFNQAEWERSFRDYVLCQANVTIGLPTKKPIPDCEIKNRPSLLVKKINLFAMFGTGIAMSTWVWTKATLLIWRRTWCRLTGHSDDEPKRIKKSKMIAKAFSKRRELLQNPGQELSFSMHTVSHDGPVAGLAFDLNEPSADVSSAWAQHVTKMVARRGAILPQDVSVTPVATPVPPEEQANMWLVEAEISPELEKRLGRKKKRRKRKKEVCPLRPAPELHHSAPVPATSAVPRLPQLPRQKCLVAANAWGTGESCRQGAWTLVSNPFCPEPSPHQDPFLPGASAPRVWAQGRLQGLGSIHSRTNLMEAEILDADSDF

SMILES: CC1=CC(C)=[N+]2C1=Cc1ccc(CCC(=O)NCCCCCC(=O)NCCN3C[C@@H](C)C[C@H]4O[C@]5(CC[C@@H]6C(=C5C)C[C@H]5[C@H]6CC=C6C[C@@H](O)CC[C@@]65C)[C@H](C)[C@@H]43)n1[B-]2(F)F [BODIPY-cyclopamine]
- Kd [1]: 450 ± 38.7 nM
- Kd [2]: 666 ± 122 nM
